From PMC9953269, “In Vivo Acute Toxicity Studies of Novel Anti-Melanoma Compounds Downregulators of hnRNPH1/H2” (Biomolecules, 2023)

Legend:
melanoma cells = details: in vitro; read-out: IC50, inhibition of viability of melanoma cells; cited from earlier work
Balb/c mice [1] = experiment: Histopathology of organs (H&E) after 21-day acute toxicity study; assay type: in vivo; details: 50 mg/kg sc, 21 days
Procedure: (§1) The animals were divided into four groups with each group containing six mice (three male and three female). Group 1: non-treated control mice; Group 2: animals were treated with a vehicle control (10%/90% DMSO/sterile water, USP sterile injectable grade) for 21 days; Group 3: animals were treated with 2155-14 (50 mg/kg body weight) for 21 days; and Group 4: animals were treated with 2155-18 (50 mg/kg body weight) for 21 days three times/week. Compounds (2155-14 and 2155-18) were freshly prepared in 10% DMSO/H2O (both USP injectable grade) for each treatment day. Both 2155-14 and 2155-18 were weighed into autoclaved 1.5 mL Eppendorf vials using analytical scales. USP grade DMSO was added to each vial under aseptic conditions and vortexed. USP grade injectable sterile H2O was then added to each vial and again vortexed. Next, 1 mL insulin syringes with a 26-gauge needle were filled with 0.2 mL of the compound and delivered to the vivarium in the closed carrier for animal treatment. For the vehicle control group, syringes were filled with 0.2 mL of 10% DMSO/H2O (USP injectable grade).
(§2) The heart, lungs, stomach, intestines, pancreas, spleen, kidney with adrenal, liver, and brain were collected and placed in 10% neutral buffered formalin for histopathology. […] Tissues were evaluated for the presence of inflammation, degeneration, signs of toxicity, and any other abnormalities. […]

Balb/c mice [2] = experiment: Overall acute toxicity after sc administration; assay type: in vivo; details: 50 mg/kg sc, 21 days
Procedure: (§3) This study used 5- to 7-week-old male and female Balb/c (Jackson Laboratories) mice. The mice were housed in standard mouse shoe-box cages and maintained in a 12-hr light/12-hr dark cycle, with 50% humidity and 20 ± 3 °C. The mice had free access to a standard pellet diet (Certified PicoLab® Rodent Diet 20, Lab Diet) and water ad libitum. The study was conducted in accordance with the guidelines of the Nova Southeastern University (NSU) Institutional Animal Care and Use Committee (NSU IACUC protocol 2019.12.DM4).
The animals were divided into four groups with each group containing six mice (three male and three female). […]
All mice were euthanized after 21 days by CO2 overdose. […] Blood smears were prepared from whole blood and analyzed for the morphological changes of blood cells under the microscope.
as §2

primary melanocytes = details: in vitro; cited from earlier work
Balb/c mice [3] = experiment: Body weight during 21-day acute toxicity study; assay type: in vivo; details: 50 mg/kg BW sc 3×/week for 3 weeks, n=6
Procedure: as §3
The animals were divided into four groups with each group containing six mice (three male and three female). Group 1: non-treated control mice; Group 2: animals were treated with a vehicle control (10%/90% DMSO/sterile water, USP sterile injectable grade) for 21 days; Group 3: animals were treated with 2155-14 (50 mg/kg body weight) for 21 days; and Group 4: animals were treated with 2155-18 (50 mg/kg body weight) for 21 days three times/week. Compounds (2155-14 and 2155-18) were freshly prepared in 10% DMSO/H2O (both USP injectable grade) for each treatment day. […]
(§4) Statistical significance was set at p < 0.05. All data were analyzed using one-way ANOVA to compare means, and significant differences were further analyzed by Tukey’s multiple comparisons using Prism (version 8.0, GraphPad Inc., San Diego, CA, USA).

Balb/c mice [4] = experiment: Blood chemistry after 21-day acute toxicity study; assay type: in vivo; details: 50 mg/kg bw sc 3×/week for 21 days, mean ± SD; for Creatinine: n=6, reference range 0.2–0.4; for Total protein: n=6, reference range 4.6–8.9; for BUN: n=6, reference range 7.0–26; for Phosphorus: n=6, reference range 8.2–14.7; for Calcium: n=6, reference range 9.4–12.5; for Glucose: n=6, reference range 129–329
Procedure: as §3, §1
(§5) All mice were euthanized after 21 days by CO2 overdose. Whole blood samples were collected via cardiocentesis with a 25-gauge needle immediately after euthanasia. Blood samples were collected in MiniCollect® Serum and Plasma Tubes containing either K3EDTA or lithium heparin for CBC and blood chemistry, respectively. Blood smears were prepared from whole blood and analyzed for the morphological changes of blood cells under the microscope.
(§6) The heart, lungs, stomach, intestines, pancreas, spleen, kidney with adrenal, liver, and brain were collected and placed in 10% neutral buffered formalin for histopathology. The tissues were processed via standard tissue processing to produce H&E slides. All H&E slides were reviewed blind to the treatment group. Tissues were evaluated for the presence of inflammation, degeneration, signs of toxicity, and any other abnormalities. CBC, blood chemistry, and histopathology analyses were performed at the Division of Comparative Pathology, University of Miami.
as §4

Balb/c mice [5] = experiment: Complete blood count (CBC) after 21-day acute toxicity study; assay type: in vivo; details: 50 mg/kg bw sc 3×/week for 21 days; for Eosinohils / Monocytes / WBC / RBC / Segmented Neutrophils / Hgb / MCH / MCHC / HCT / Lymphocytes / MCV / Platelets: mean ± SD; for Eosinohils: n=6, reference range 0.11–4.91; for Monocytes: n=6, reference range 3.29–12.48; for WBC: n=6, reference range 3.48–14.03; for RBC: n=6, reference range 6.93–12.24; for Segmented Neutrophils: n=6, reference range 9.86–39.11; for Hgb: n=6, reference range 12.6–20.5; for MCH: n=6, reference range 13.2–17.6; for MCHC: n=6, reference range 23.3–32.7; for HCT: n=6, reference range 42.1–68.3; for Lymphocytes: n=6, reference range 48.81–83.19; for MCV: n=6, reference range 50.7–64.4; for Platelets: n=6, reference range 420–1698; for Banded Neutrophils: n=6, reference range 0–1; for Basophils: n=6, reference range 0–1.84
Procedure: as §3, §1, §5, §6, §4

[6] = tested on: various cell types (liver, lung, breast, brain, skin, ovary, primary melanocytes, primary keratinocytes); details: in vitro, tested up to 100 µM; cited from earlier work

Structure (SMILES) | IC50 (melanoma cells) [µM] | Histopathological examination of hearts and livers (Balb/c mice [1]) | Acute toxicity after sc administration (Balb/c mice [2]) | Effect on viability of primary melanocytes (primary melanocytes) | Change in body weight versus control groups (Balb/c mice [3]) | Creatinine (Balb/c mice [4]) | Total protein (Balb/c mice [4]) [g/dL] | BUN (Balb/c mice [4]) [mg/dL] | Phosphorus (Balb/c mice [4]) | Calcium (Balb/c mice [4]) [mg/dL] | Glucose (Balb/c mice [4]) [mg/dL] | Eosinohils (Balb/c mice [5]) [%] | Monocytes (Balb/c mice [5]) [%] | WBC (Balb/c mice [5]) [K/µL] | RBC (Balb/c mice [5]) [M/µL] | Segmented Neutrophils (Balb/c mice [5]) [%] | Hgb (Balb/c mice [5]) | MCH (Balb/c mice [5]) [pg] | MCHC (Balb/c mice [5]) [g/dL] | HCT (Balb/c mice [5]) [%] | further results
O=C1NC[C@H](Cc2ccccc2)N(C[C@@H]2CCCN2C[C@@H](CC2CCCCC2)N2C[C@H](Cc3ccc(O)cc3)N(CCc3ccccc3)C(=O)C2=O)C1=O [Compound 2155-14] | 0.5 to 10 | no adverse effects | lack of acute toxicity | do not have an effect on the viability of primary melanocytes | No significant changes in body weight | * 0.44 ± 0.19 mg/dL | 7.1 ± 0.6 | 18.3 ± 2.5 | 13.6 ± 0.4 mg/dL | 9.1 ± 0.85 | 181 ± 25.7 | 0.5 ± 1.2 | 4.25 ± 4.27 | 5.1 ± 1.6 | 10.6 ± 2.1 | 18.8 ± 8.0 | 14.1 ± 1.6 g/dL | 14 ± 2.3 | 23 ± 5.1 | 61.1 | Lymphocytes (Balb/c mice [5]): 78.3 ± 7.5%; MCV (Balb/c mice [5]): 61 ± 2.2 fL; Platelets (Balb/c mice [5]): 542 ± 95 K/µL; Banded Neutrophils (Balb/c mice [5]): 0%; Basophils (Balb/c mice [5]): 0%; TC50, toxicity against various cell types [6]: > 100 µM
O=C1NC[C@H](Cc2ccccc2)N(C[C@@H]2CCCN2C[C@H](Cc2ccccc2)N2C[C@H](Cc3ccc(O)cc3)N(CCC34CC5CC(CC(C5)C3)C4)C(=O)C2=O)C1=O [Compound 2155-18] | 0.5 to 10 | no adverse effects | lack of acute toxicity | do not have an effect on the viability of primary melanocytes | No significant changes in body weight | * 0.46 ± 0.11 mg/dL | 6.7 ± 0.48 | 16.7 ± 1.6 | * 15.3 ± 0.25 mg/dL | 8.7 ± 0.75 | 212 ± 50.5 | 2 ± 1 | 6.7 ± 2.3 | 4.2 ± 2.7 | 7.9 ± 1.4 | 24.7 ± 10.9 | * 11.9 ± 1.6 g/dL | 14.7 ± 0.57 | 25.3 ± 0.58 | 46.9 ± 6.4 | Lymphocytes (Balb/c mice [5]): 70.7 ± 11.3%; MCV (Balb/c mice [5]): 59.3 ± 2.1 fL; Platelets (Balb/c mice [5]): 741 ± 305 K/µL; Banded Neutrophils (Balb/c mice [5]): 0%; Basophils (Balb/c mice [5]): 0%; TC50, toxicity against various cell types [6]: > 100 µM
